Assay results from patent US11229224B2, “Phytochemical compositions used as disinfectants and food preservatives” (priority 2012, dated 2022).

What was measured:
S. Montevideo = settings: 500 μl AITC; cited from earlier work
Salmonella sp = settings: submerging sprouts into 100 and 200 ppm hypochlorite solutions; cited from earlier work
native flora of alfalfa = assay: Total count in non-inoculated alfalfa seed after disinfection; type: cell-based
Description: (§1) A comparison between the activity of aqueous extract and that of hypochlorite (1,000 and 10,000 ppm) was performed in non-inoculated seed. A total count was carried out in all cases.

native flora of soybeans = assay: Total count in non-inoculated soybean seed after disinfection; type: cell-based
Description: as §1

soybean seeds = assay: Toxic effect on seed germination (FIGS. 1 to 6); type: in vivo, soybean seeds (Vigna radiata L)
Description: Therefore, a study comparing the toxic effect of hypochlorite (1,000 and 10,000 ppm), hibiscus vegetal extract and acetic acid was performed, yielding the results shown in FIGS. 1 to 6.

toxigenic fungus = settings: in food; cited from earlier work
almost all flora = settings: in food, within reasonable elevated limits of initial load; cited from earlier work
most pathogens = settings: in food; cited from earlier work
S. choleraesuis = assay: Diffusion technique, inhibition zone on agar; type: cell-based, Salmonella choleraesuis; settings: 1:10 dilution of aqueous hibiscus extract, 10 μL on plate, 35±1° C., 24 h
Description: (§2) This procedure was repeated twice. […] Finally, each strain was 10-fold diluted with ISS.
(§3) 100 μL from the first dilution of the respective pathogen culture were inoculated in AST plates. Inoculum was completely distributed on agar surface by the surface extension technique. From the dry extract, a 10% solution of hibiscus calyxes was prepared with distilled water. 10 μL aliquots of this extract were placed on each inoculated plate. Four repetitions were carried out. After the extract was absorbed by agar the plates were incubated at 35±1° C. for 24 h. Finally, the diameter of each inhibition zone was measured on the inoculated surface.

V. cholerae O1 = assay: Diffusion technique, inhibition zone on agar; type: cell-based, Vibrio cholerae O1; settings: 1:10 dilution of aqueous hibiscus extract, 10 μL on plate, 35±1° C., 24 h
Description: as §2, §3

P. aeruginosa = assay: Diffusion technique, inhibition zone on agar; type: cell-based, Pseudomonas aeruginosa; settings: 1:10 dilution of aqueous hibiscus extract, 10 μL on plate, 35±1° C., 24 h
Description: as §2, §3

S. aureus = assay: Diffusion technique, inhibition zone on agar; type: cell-based, Staphylococcus aureus; settings: 1:10 dilution of aqueous hibiscus extract, 10 μL on plate, 35±1° C., 24 h
Description: as §2, §3

S. flexneri = assay: Diffusion technique, inhibition zone on agar; type: cell-based, Shigella flexneri; settings: 1:10 dilution of aqueous hibiscus extract, 10 μL on plate, 35±1° C., 24 h
Description: as §2, §3

S. sonnei = assay: Diffusion technique, inhibition zone on agar; type: cell-based, Shigella sonnei; settings: 1:10 dilution of aqueous hibiscus extract, 10 μL on plate, 35±1° C., 24 h
Description: as §2, §3

S. typhimurium = assay: Diffusion technique, inhibition zone on agar; type: cell-based, Salmonella typhimurium; settings: 1:10 dilution of aqueous hibiscus extract, 10 μL on plate, 35±1° C., 24 h
Description: as §2, §3

Enterotoxigenic E. coli = assay: Diffusion technique, inhibition zone on agar; type: cell-based, Escherichia coli; settings: 1:10 dilution of aqueous hibiscus extract, 10 μL on plate, 35±1° C., 24 h
Description: as §2, §3

Enterapathogenic E. coli = assay: Diffusion technique, inhibition zone on agar; type: cell-based, Escherichia coli; settings: 1:10 dilution of aqueous hibiscus extract, 10 μL on plate, 35±1° C., 24 h
Description: as §2, §3

E. coli = assay: Diffusion technique, inhibition zone on agar; type: cell-based, Escherichia coli; settings: 1:10 dilution of aqueous hibiscus extract, 10 μL on plate, 35±1° C., 24 h
Description: as §2, §3

Enteroinvasive E. coli = assay: Diffusion technique, inhibition zone on agar; type: cell-based, Escherichia coli; settings: 1:10 dilution of aqueous hibiscus extract, 10 μL on plate, 35±1° C., 24 h
Description: as §2, §3

L. monocytogenes = assay: Diffusion technique, inhibition zone on agar; type: cell-based, Listeria monocytogenes; settings: 1:10 dilution of aqueous hibiscus extract, 10 μL on plate, 35±1° C., 24 h
Description: as §2, §3

[1] = Table 9, hypochlorite 1,000 ppm
[2] = Table 11, hypochlorite 10,000 ppm
[3] = Table 8, hypochlorite 1,000 ppm
[4] = Table 10, hypochlorite 10,000 ppm

C=CCN=C=S [AITC]
decrease of S. Montevideo on tomato cuticle (S. Montevideo): 8 Log

OCl [Hypochlorite, sodium hypochlorite]
reduction of Salmonella sp in sprouts (Salmonella sp): 1 Log10
% of decrease (native flora of alfalfa; [1]): 6.95%
Decrease (native flora of alfalfa; [1]): 0.18 Log10 CFU/g
Final concentration (native flora of alfalfa; Table 9, hypochlorite 1,000 ppm, initial 3.59, N = 3): 3.41 ± 0.38 Log10 CFU/g
% of decrease (native flora of alfalfa; [2]): 17.31%
Decrease (native flora of alfalfa; [2]): 0.40 Log10 CFU/g
Final concentration (native flora of alfalfa; Table 11, hypochlorite 10,000 ppm, initial 3.30-3.31, N = 3): 2.9 ± 0.56 Log10 CFU/g
% of decrease (native flora of soybeans; [3]): 6.95%
Decrease (native flora of soybeans; [3]): 0.18 Log10 CFU/g
Final concentration (native flora of soybeans; Table 8, hypochlorite 1,000 ppm, initial 2.59 ± 1.19, N = 3): 2.41 ± 1.08 Log10 CFU/g
% of decrease (native flora of soybeans; [4]): 17.31%
Decrease (native flora of soybeans; [4]): 0.40 Log10 CFU/g
Final concentration (native flora of soybeans; Table 10, hypochlorite 10,000 ppm, initial 2.31 ± 0.89, N = 3): 1.91 ± 1.23 Log10 CFU/g
structural damage of seeds (soybean seeds; FIGS. 2 and 4): structural damage
decrease of the sprout yield (soybean seeds; hypochlorite, FIG. 4 (10,000 ppm sodium hypochlorite solution)): 87.63%

CC(=O)O [acetic acid]
concentration that has effects on toxigenic fungus (toxigenic fungus): 0.5%
concentration that inhibits almost all flora (almost all flora): 1-2%
concentration that acts on most pathogens (most pathogens): 0.1%

penicillin
Inhibition diameter (S. choleraesuis): 12 mm
Inhibition diameter (V. cholerae O1): 13 mm
Inhibition diameter (P. aeruginosa): 13 mm
Inhibition diameter (S. aureus): 13 mm
Inhibition diameter (S. flexneri): 12 mm
Inhibition diameter (S. sonnei): 14 mm
Inhibition diameter (S. typhimurium): 15 mm
Inhibition diameter (Enterotoxigenic E. coli): 12 mm
Inhibition diameter (Enterapathogenic E. coli): 11 mm
Inhibition diameter (E. coli): 13 mm
Inhibition diameter (Enteroinvasive E. coli): 12 mm
Inhibition diameter (L. monocytogenes): 12 mm
